# Test results as given in US20230055705A1, “SUBSTITUTED THIOPHENE CARBOXAMIDES AND DERIVATIVES THEREOF” (Bayer Aktiengesellschaft, priority 2019, published 2023).
# Experiment: LogP by HPLC on reversed phase columns (EEC directive 79/831 Annex V.A8)
# Format: physicochemical
# Conditions: not given
# Protocol: In the above tables, measurement of LogP values was performed according to EEC directive 79/831 Annex V.A8 by HPLC (High Performance Liquid Chromatography) on reversed phase columns with the following methods: • ^[a]
# Calibration was done with straight-chain alkan2-ones (with 3 to 16 carbon atoms) with known LogP values (measurement of LogP values using retention times with linear interpolation between successive alkanones). Lambda-max-values were determined using UV-spectra from 200 nm to 400 nm and the peak values of the chromatographic signals.
row,Structure (SMILES),LogP
1,NC(=O)CC(NC(=O)c1sc(Cl)c(Cl)c1Cl)C(=O)O (stereo not drawn) [I.001],1.81^[a]
2,NC(=O)CCC(NC(=O)c1sc(Cl)c(Cl)c1Cl)C(=O)O (stereo not drawn) [I.002],1.73^[a]
3,O=C(NC(Cc1c[nH]c2ccccc12)C(=O)O)c1sc(Cl)c(Cl)c1Cl (stereo not drawn) [I.003],3.31^[a]
4,O=C(NC1CCNC1=O)c1sc(Cl)c(Cl)c1Cl (stereo not drawn) [I.004],1.98^[a]
5,COC(=O)C(NC(=O)c1sc(Cl)c(Cl)c1Cl)(C1CC1)C1CC1 [I.005],4.51^[a]
6,CCOC(=O)C(NC(=O)c1sc(Cl)c(Cl)c1Cl)C(=O)OCC [I.006],4.19^[a]
7,COC(=O)[C@@H](CC(N)=O)NC(=O)c1sc(Cl)c(Cl)c1Cl [I.014],2.11^[a]
8,CCOC(=O)C(NC(=O)c1sc(Cl)c(Cl)c1Cl)OC (stereo not drawn) [I.017],3.57^[a]
9,CCOC(=O)CN(OC)C(=O)c1sc(Cl)c(Cl)c1Cl [I.018],3.64^[a]
10,O=C1SCCC1NC(=S)c1sc(Cl)c(Cl)c1Cl (stereo not drawn) [I.019],4.37^[a]
11,COC(=O)C(C1CC1)N(O)C(=O)c1sc(Cl)c(Cl)c1Cl (stereo not drawn) [I.021],3.00^[a]
12,O=C(NC1CCSC1=O)c1sc(Cl)c(Cl)c1Cl (stereo not drawn) [I.023],3.17^[a]
13,CC1(C)SC(=O)C1NC(=O)c1sc(Cl)c(Cl)c1Cl (stereo not drawn) [I.024],4.04^[a]
14,CCOC(=O)CCNC(=O)c1sc(Cl)c(Cl)c1Cl [I.026],3.46^[a]
15,CC(C)OC(=O)C1(C2(NC(=O)c3sc(Cl)c(Cl)c3Cl)CC2)CC1 [I.027],5.35^[a]
16,O=C1CC(NC(=O)c2sc(Cl)c(Cl)c2Cl)CN1 (stereo not drawn) [I.028],1.86^[a]
17,O=C(NC1CCOC1=O)c1sc(Cl)c(Cl)c1Cl (stereo not drawn) [I.029],2.48^[a]
18,O=C1CC(NC(=O)c2sc(Cl)c(Cl)c2Cl)CCN1 (stereo not drawn) [I.030],1.93^[a]
19,O=C(NC1CCCNC1=O)c1sc(Cl)c(Cl)c1Cl (stereo not drawn) [I.031],2.20^[a]
20,N#CC1(NC(=O)c2sc(Cl)c(Cl)c2Cl)CC1 [I.032],2.88^[a]
21,N#CC(NC(=O)c1sc(Cl)c(Cl)c1Cl)c1ccccc1 (stereo not drawn) [I.034],3.92^[a]
22,N#CC(Cc1ccccc1)NC(=O)c1sc(Cl)c(Cl)c1Cl (stereo not drawn) [I.035],4.13^[a]
23,CCSC(=O)CNC(=O)c1sc(Cl)c(Cl)c1Cl [I.036],3.75^[a]

row,Structure (SMILES),LogP
1,CCOC(=O)C1(NC(=S)c2sc(Cl)c(Cl)c2Cl)CC1 [I.037],4.61^[a]
2,CCSC(=O)C(CC(C)C)NC(=O)c1sc(Cl)c(Cl)c1Cl (stereo not drawn) [I.039],5.54^[a]
3,CCSC(=O)C(NC(=O)c1sc(Cl)c(Cl)c1Cl)C(C)C (stereo not drawn) [I.040],5.34^[a]
4,O=C(CNC(=O)c1sc(Cl)c(Cl)c1Cl)SCc1ccccc1 [I.041],4.56^[a]
5,O=C(CNC(=O)c1sc(Cl)c(Cl)c1Cl)Sc1ccccc1 [I.042],4.27^[a]
6,O=C(N[C@H]1CCSC1=O)c1sc(Cl)c(Cl)c1Cl [I.043],3.24^[a]
7,CCOC(=O)C1(CNC(=O)c2sc(Cl)c(Cl)c2Cl)CC1 [I.045],4.27^[a]
8,CCOC(=O)C1(C2(NC(=O)c3sc(Cl)c(Cl)c3Cl)CC2)CC1 [I.047],4.83^[a]
9,O=C(NC1(C(=O)NO)CC1)c1sc(Cl)c(Cl)c1Cl [I.050],1.91^[a]
10,CSCCC(NC(=O)c1sc(Cl)c(Cl)c1Cl)C(=O)O (stereo not drawn) [I.051],3.01^[a]
11,CN(CC#N)C(=O)C1(NC(=O)c2sc(Cl)c(Cl)c2Cl)CC1 [I.052],2.44^[a]
12,CONC(=O)C1(NC(=O)c2sc(Cl)c(Cl)c2Cl)CC1 [I.055],2.14^[a]
13,O=C(NC(CO)C(=O)O)c1sc(Cl)c(Cl)c1Cl (stereo not drawn) [I.056],1.94^[a]
14,CCOC(=O)C1(NC(=O)c2sc(Cl)c(Cl)c2Cl)CN(C(=O)OC(C)(C)C)C1 [I.057],4.47^[a]
15,CCOC(=O)C(CC1CC1)NC(=O)c1sc(Cl)c(Cl)c1Cl (stereo not drawn) [I.058],4.81^[a]
16,NC(=O)C1(NC(=O)c2sc(Cl)c(Cl)c2Cl)CC1 [I.060],2.00^[a]
17,N#CCNC(=O)CNC(=O)c1sc(Cl)c(Cl)c1Cl [I.062],2.21^[a]
18,CN(CC#N)C(=O)CNC(=O)c1sc(Cl)c(Cl)c1Cl [I.063],2.62^[a]
19,CN(C)C(=O)CNC(=O)c1sc(Cl)c(Cl)c1Cl [I.065],2.47^[a]
20,CCOC(=O)C1(NC(=O)c2sc(Cl)c(Cl)c2Cl)CCCC1 [I.070],4.61^[a]
21,COC(=O)C1(NC(=O)c2sc(Cl)c(Cl)c2Cl)CCOCC1 [I.071],3.00^[a]
22,COC(=O)C1(NC(=O)c2sc(Cl)c(Cl)c2Cl)CCC(F)(F)CC1 [I.072],3.99^[a]
23,CNC(=O)CNC(=O)c1sc(Cl)c(Cl)c1Cl [I.073],2.07^[a]

row,Structure (SMILES),LogP
1,COC(=O)[C@H](Cc1ccccc1)NC(=O)[C@H](CC(=O)O)NC(=O)c1sc(Cl)c(Cl)c1Cl [I.074],3.19^[a]
2,COC(=O)[C@H](CCC(=O)O)NC(=O)c1sc(Cl)c(Cl)c1Cl [I.075],2.57^[a]
3,COC(=O)C1(NC(=O)c2sc(Cl)c(Cl)c2Cl)CCOC1 (stereo not drawn) [I.076],3.00^[a]
4,CCOC(=O)C1(NC(=O)c2sc(Cl)c(Cl)c2Cl)CCOCC1 [I.077],3.39^[a]
5,COC(=O)C1(NC(=O)c2sc(Cl)c(Cl)c2Cl)CSC1 [I.080],3.50^[a]
6,COC(=O)[C@H](CC(=O)O)NC(=O)c1sc(Cl)c(Cl)c1Cl [I.081],2.46^[a]
7,COC(=O)[C@H](CCC(N)=O)NC(=O)c1sc(Cl)c(Cl)c1Cl [I.082],2.19^[a]
8,CCOC(=O)[C@H](CO)NC(=O)c1sc(Cl)c(Cl)c1Cl [I.083],2.78^[a]
9,CCOC(=O)C(CCSC)NC(=O)c1sc(Cl)c(Cl)c1Cl (stereo not drawn) [I.084],4.47^[a]
10,CCOC(=O)C1(NC(=O)c2sc(Cl)c(Cl)c2Cl)CSC1 [I.085],3.92^[a]
11,CC(C)(C)OC(=O)C1(NC(=O)c2sc(Cl)c(Cl)c2Cl)CC(F)(F)C1 [I.086],4.81^[a]
12,COC(=O)C1(NC(=O)c2sc(Cl)c(Cl)c2Cl)CC(C)(C)C1 [I.087],4.48^[a]
13,COC(=O)C1(NC(=O)c2sc(Cl)c(Cl)c2Cl)CC(F)(F)C1 [I.088],3.65^[a]
14,CCSC(=O)C(NC(=O)c1sc(Cl)c(Cl)c1Cl)C(C)C (stereo not drawn) [I.090],5.45^[a]
15,CCOC(=O)C(NC(=S)c1sc(Cl)c(Cl)c1Cl)C(C)C (stereo not drawn) [I.092],6.17^[a]
16,COC(=O)C(NC(=S)c1sc(Cl)c(Cl)c1Cl)C(C)C (stereo not drawn) [I.093],5.61^[a]
17,CCNC(=O)[C@@H](NC(=O)c1sc(Cl)c(Cl)c1Cl)C(C)C [I.094],3.43^[a]
18,CC(C)(C)OC(=O)C1(NC(=O)c2sc(Cl)c(Cl)c2Cl)CCC1 [I.097],5.28^[a]
19,CCCCOC(=O)C1(NC(=O)c2sc(Cl)c(Cl)c2Cl)CCC1 [I.099],5.20^[a]
20,O=C(NC1(C(=O)OCc2ccccc2)CCC1)c1sc(Cl)c(Cl)c1Cl [I.100],5.00^[a]
21,CCCOC(=O)C1(NC(=O)c2sc(Cl)c(Cl)c2Cl)CCC1 [I.101],4.74^[a]
22,O=C(NC1(C(=O)OC2CCC2)CCC1)c1sc(Cl)c(Cl)c1Cl [I.102],4.93^[a]
23,O=C(NC1(C(=O)OC2CCCCC2)CCC1)c1sc(Cl)c(Cl)c1Cl [I.103],5.84^[a]

row,Structure (SMILES),LogP
1,NC(=S)C1(NC(=O)c2sc(Cl)c(Cl)c2Cl)CC1 [I.105],2.62^[a]
2,N#CNC(=O)CNC(=O)c1sc(Cl)c(Cl)c1Cl [I.106],2.45^[a]
3,N#CNC(=O)C1(NC(=O)c2sc(Cl)c(Cl)c2Cl)CC1 [I.107],2.57^[a]
4,COC(=O)C1(NC(=O)c2sc(Cl)c(Cl)c2Cl)CCC1 [I.112],3.69^[a]
5,CN(C)C(=S)C1(NC(=O)c2sc(Cl)c(Cl)c2Cl)CC1 [I.115],3.20^[a]
6,CCOC(=O)CN(C(=O)c1sc(Cl)c(Cl)c1Cl)C1CC1 [I.116],3.78^[a]
7,O=C(N[C@H]1CCOC1=O)c1sc(Cl)c(Cl)c1Cl [I.121],2.49^[a]
8,COC(=O)C(C)(Cc1ccccc1)NC(=O)c1sc(Cl)c(Cl)c1Cl (stereo not drawn) [I.122],5.11^[a]
9,CCOC(=O)C(NC(=O)c1sc(Cl)c(Cl)c1Cl)C(F)(F)F (stereo not drawn) [I.123],4.47^[a]
10,O=C(NC1CCCCNC1=O)c1sc(Cl)c(Cl)c1Cl (stereo not drawn) [I.125],2.93^[a]
11,O=C(N[C@H]1CCCNC1=O)c1sc(Cl)c(Cl)c1Cl [I.126],2.24^[a]
12,COC(=O)C(CCSC(C)=O)NC(=O)c1sc(Cl)c(Cl)c1Cl (stereo not drawn) [I.127],3.94^[a]
13,CNC(=S)CNC(=O)c1sc(Cl)c(Cl)c1Cl [I.128],2.89^[a]
14,CN(C)C(=S)CNC(=O)c1sc(Cl)c(Cl)c1Cl [I.129],3.68^[a]
15,CC(C)C(C#N)NC(=O)c1sc(Cl)c(Cl)c1Cl (stereo not drawn) [I.130],3.81^[a]
16,N#CC1(NC(=O)c2sc(Cl)c(Cl)c2Cl)CCC(c2ccccc2)CC1 (stereo not drawn) [I.131],5.00^[a]
17,CC(C)(C#N)NC(=O)c1sc(Cl)c(Cl)c1Cl [I.132],3.19^[a]
18,N#CC1(NC(=O)c2sc(Cl)c(Cl)c2Cl)CCSCC1 [I.133],3.72^[a]
19,N#CC1(NC(=O)c2sc(Cl)c(Cl)c2Cl)CCC(C2CCCCC2)CC1 (stereo not drawn) [I.134],6.41^[a]
20,COC(=O)CC(C)NC(=O)c1sc(Cl)c(Cl)c1Cl (stereo not drawn) [I.135],3.64^[a]
21,CCNC(=O)SC[C@H](NC(=O)c1sc(Cl)c(Cl)c1Cl)C(=O)OC [I.141],3.36^[a]
22,O=C(CNC(=O)c1sc(Cl)c(Cl)c1Cl)NO [I.148],1.70^[a]
23,CC(C)OC(=O)C1(NC(=O)c2sc(Cl)c(Cl)c2Cl)CCC1 [I.150],4.74^[a]

# Same assay, conditions: reversed phase HPLC columns, given in the preparation examples; method not marked
row,Structure (SMILES),chromatographic logP
1,"O=C(NC1(C(=O)O)CC1)c1sc(Cl)c(Cl)c1Cl [1-{[(3,4,5-trichloro-2-thienyl)carbonyl]amino}cyclopropanecarboxylic acid]",2.39
